# From ChEMBL document CHEMBL4477255, “Charting the chemical space around the (iso)indoline scaffold, a comprehensive approach towards multitarget directed ligands” (Bioorg Med Chem Lett, 2016)
# Columns and labels:
# Type in all cases: cell-based
# D(2) dopamine receptor [1] = target: T1, D(2) dopamine receptor (Homo sapiens, UniProt P14416); assay: Displacement of [3H]raclopride from human recombinant dopamine D2 long receptor expressed in CHO-K1 cells at 1 uM incubated for 120 mins by scintillation counting analysis
# Histamine H3 receptor = Histamine H3 receptor (Homo sapiens, UniProt Q9Y5N1); assay: Displacement of N-alpha-[methyl-3H]methylhistamine dihydrochloride from human recombinant histamine H3 receptor expressed in CHO-K1 cells at 1 uM incubated for 30 mins by liquid scintillation counting analysis
# D(3) dopamine receptor [2] = target: T2, D(3) dopamine receptor (Homo sapiens, UniProt P35462); assay: Displacement of [3H]raclopride from human recombinant dopamine D3 receptor expressed in CHO-K1 cells at 1 uM incubated for 120 mins by liquid scintillation counting analysis
# [3] = target: T3, 5-hydroxytryptamine receptor 6 (Homo sapiens, UniProt P50406); assay: Displacement of [3H]LSD from human recombinant 5-HT6 receptor expressed in CHO-K1 cells at 1 uM incubated for 3 hrs by scintillation counting analysis
# [4] = target: T3, 5-hydroxytryptamine receptor 6; assay: Displacement of [3H]LSD from human recombinant 5-HT6 receptor expressed in CHO-K1 cells incubated for 3 hrs by scintillation counting analysis
# D(3) dopamine receptor [5] = target: T2, D(3) dopamine receptor; assay: Displacement of [3H]raclopride from human recombinant dopamine D3 receptor expressed in CHO-K1 cells incubated for 120 mins by liquid scintillation counting analysis
# D(2) dopamine receptor [6] = target: T1, D(2) dopamine receptor; assay: Displacement of [3H]raclopride from human recombinant dopamine D2 long receptor expressed in CHO-K1 cells incubated for 120 mins by scintillation counting analysis
# Homo sapiens = species: Homo sapiens; assay: Selectivity index, ratio of Ki for human recombinant dopamine D3 receptor expressed in CHO-K1 cells to Ki for dopamine D2 long receptor expressed in CHO-K1 cells
# Chain of Histamine H3 receptor (Q9Y5N1 whole entry): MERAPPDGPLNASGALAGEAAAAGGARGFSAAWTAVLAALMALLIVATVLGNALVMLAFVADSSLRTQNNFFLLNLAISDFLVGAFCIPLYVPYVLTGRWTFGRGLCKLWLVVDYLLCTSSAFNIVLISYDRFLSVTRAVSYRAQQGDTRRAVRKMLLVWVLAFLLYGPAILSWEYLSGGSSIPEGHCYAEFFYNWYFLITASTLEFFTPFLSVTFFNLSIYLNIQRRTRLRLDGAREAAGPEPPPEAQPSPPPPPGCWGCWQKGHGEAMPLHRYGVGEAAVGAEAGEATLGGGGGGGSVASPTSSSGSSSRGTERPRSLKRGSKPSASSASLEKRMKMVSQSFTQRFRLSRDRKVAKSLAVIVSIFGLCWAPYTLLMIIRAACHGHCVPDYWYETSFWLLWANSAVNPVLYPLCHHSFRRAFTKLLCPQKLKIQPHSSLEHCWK
# T1 sequence (P14416 whole entry): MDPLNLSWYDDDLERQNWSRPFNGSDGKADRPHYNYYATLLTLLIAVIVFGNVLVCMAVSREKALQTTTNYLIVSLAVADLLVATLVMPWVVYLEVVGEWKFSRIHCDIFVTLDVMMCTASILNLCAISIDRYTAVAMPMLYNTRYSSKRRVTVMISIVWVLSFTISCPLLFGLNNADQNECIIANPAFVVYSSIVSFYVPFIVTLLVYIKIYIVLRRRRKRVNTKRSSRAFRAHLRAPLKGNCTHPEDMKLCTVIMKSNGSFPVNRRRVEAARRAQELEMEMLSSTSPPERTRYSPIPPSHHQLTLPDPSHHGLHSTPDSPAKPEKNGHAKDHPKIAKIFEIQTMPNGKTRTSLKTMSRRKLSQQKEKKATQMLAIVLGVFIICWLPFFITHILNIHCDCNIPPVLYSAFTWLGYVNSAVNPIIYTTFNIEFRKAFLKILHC
# T2 sequence (P35462 whole entry): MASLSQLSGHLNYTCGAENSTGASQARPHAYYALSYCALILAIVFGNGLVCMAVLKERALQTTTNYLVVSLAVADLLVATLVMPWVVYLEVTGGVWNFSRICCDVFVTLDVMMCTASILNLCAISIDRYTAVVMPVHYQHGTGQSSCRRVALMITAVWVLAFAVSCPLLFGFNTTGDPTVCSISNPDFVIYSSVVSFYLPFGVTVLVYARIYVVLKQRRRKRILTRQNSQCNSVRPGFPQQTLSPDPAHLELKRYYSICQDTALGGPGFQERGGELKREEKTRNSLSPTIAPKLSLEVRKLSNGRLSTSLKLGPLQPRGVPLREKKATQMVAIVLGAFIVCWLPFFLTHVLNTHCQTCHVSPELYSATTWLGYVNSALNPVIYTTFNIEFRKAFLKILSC
# T3 sequence (P50406 whole entry): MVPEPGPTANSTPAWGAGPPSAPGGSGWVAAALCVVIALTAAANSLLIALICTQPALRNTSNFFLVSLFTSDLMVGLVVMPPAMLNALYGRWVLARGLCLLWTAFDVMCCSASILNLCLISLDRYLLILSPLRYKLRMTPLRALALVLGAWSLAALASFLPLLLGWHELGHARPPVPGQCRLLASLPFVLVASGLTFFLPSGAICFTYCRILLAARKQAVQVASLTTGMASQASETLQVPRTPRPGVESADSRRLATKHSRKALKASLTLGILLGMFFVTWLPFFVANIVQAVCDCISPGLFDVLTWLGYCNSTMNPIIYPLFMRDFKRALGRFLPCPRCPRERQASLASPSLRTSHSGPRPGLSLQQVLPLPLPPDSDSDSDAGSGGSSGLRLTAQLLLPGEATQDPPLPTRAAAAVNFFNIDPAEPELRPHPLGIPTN
Compound,inhibition (D(2) dopamine receptor [1]),inhibition (Histamine H3 receptor),inhibition (D(3) dopamine receptor [2]),inhibition [3],Ki [4],Ki (D(3) dopamine receptor [5]),Ki (D(2) dopamine receptor [6]),Ratio Ki (Homo sapiens)
CN1CCC(c2cccc3c2CCN3S(=O)(=O)c2ccccc2)CC1,35%,10%,13%,87%,45 nM,,,
CCCN1CCN(c2cccc3c2CCN3S(=O)(=O)c2ccccc2)CC1,87%,27%,97%,78%,74 nM,17 nM,42 nM,1.5
O=S(=O)(c1ccccc1)N1CCc2cc(N3CCN(C4CCC4)CC3)ccc21,24%,36%,68%,28%,,208 nM,,
O=S(=O)(c1ccccc1)N1Cc2ccc(N3CCNCC3)cc2C1,14%,7%,37%,46%,289 nM,,,
O=S(=O)(c1ccccc1)N1CCc2c(N3CCNCC3)cccc21,22%,3%,40%,97%,118 nM,,,
CN1CCN(c2cccc3c2CN(S(=O)(=O)c2ccccc2)C3)CC1,43%,19%,85%,100%,2.6 nM,160 nM,,
O=S(=O)(c1ccccc1)N1Cc2ccc(C3CCN(C4CCC4)CC3)cc2C1,25%,28%,24%,-10%,,,,
O=S(=O)(c1ccccc1)N1Cc2cccc(N3CCN(C4CCC4)CC3)c2C1,47%,16%,72%,98%,4.8 nM,525 nM,1590 nM,
O=S(=O)(c1ccccc1)N1Cc2ccc(C3CCNCC3)cc2C1,9%,3%,3%,54%,254 nM,,,
O=S(=O)(c1ccccc1)N1CCc2ccc(C3CCN(C4CCC4)CC3)cc21,29%,1%,59%,62%,527 nM,362 nM,,< 10
CCN1CCC(c2cccc3c2CN(S(=O)(=O)c2ccccc2)C3)CC1,27%,3%,53%,98%,2.3 nM,562 nM,,
CCN1CCN(c2cccc3c2CN(S(=O)(=O)c2ccccc2)C3)CC1,55%,17%,92%,98%,28 nM,73 nM,310 nM,
O=S(=O)(c1ccccc1)N1CCc2ccc(N3CCNCC3)cc21,32%,4%,58%,95%,12 nM,330 nM,,< 10
CCCN1CCN(c2cccc3c2CN(S(=O)(=O)c2ccccc2)C3)CC1,64%,12%,97%,98%,4.6 nM,27 nM,180 nM,
CN1CCN(c2ccc3c(c2)CN(S(=O)(=O)c2ccccc2)C3)CC1,11%,21%,41%,29%,,,,
O=S(=O)(c1ccccc1)N1CCc2ccc(C3CCNCC3)cc21,27%,-6%,49%,91%,2.7 nM,517 nM,,< 10
O=S(=O)(c1ccccc1)N1CCc2c(C3CCNCC3)cccc21,10%,-5%,6%,83%,13 nM,,,
O=S(=O)(c1ccccc1)N1CCc2cc(N3CCNCC3)ccc21,18%,4%,75%,90%,20 nM,133 nM,,
CN1CCN(c2ccc3c(c2)CCN3S(=O)(=O)c2ccccc2)CC1,18%,35%,85%,84%,440 nM,108 nM,,
O=S(=O)(c1ccccc1)N1Cc2cccc(C3CCN(C4CCC4)CC3)c2C1,49%,13%,-5%,91%,42 nM,,1830 nM,
CN1CCC(c2ccc3c(c2)CN(S(=O)(=O)c2ccccc2)C3)CC1,19%,41%,34%,56%,556 nM,,,
O=S(=O)(c1ccccc1)N1Cc2cccc(N3CCNCC3)c2C1,29%,11%,61%,98%,1.9 nM,505 nM,,
CCCN1CCN(c2ccc3c(c2)CN(S(=O)(=O)c2ccccc2)C3)CC1,29%,38%,85%,,,103 nM,,

# Continued, in another order:
inhibition (D(2) dopamine receptor [1]),inhibition (Histamine H3 receptor),inhibition (D(3) dopamine receptor [2]),inhibition [3],Ki [4],Ki (D(3) dopamine receptor [5]),Ki (D(2) dopamine receptor [6]),Compound,Ratio Ki (Homo sapiens)
80%,16%,99%,82%,125 nM,5.7 nM,95 nM,CCCN1CCN(c2ccc3c(c2)N(S(=O)(=O)c2ccccc2)CC3)CC1,< 10
35%,22%,79%,39%,,227 nM,,CCCN1CCC(c2ccc3c(c2)CCN3S(=O)(=O)c2ccccc2)CC1,
59%,39%,98%,38%,,24 nM,245 nM,CCCN1CCN(c2ccc3c(c2)CCN3S(=O)(=O)c2ccccc2)CC1,
39%,11%,86%,95%,23 nM,95 nM,,CCN1CCC(c2ccc3c(c2)N(S(=O)(=O)c2ccccc2)CC3)CC1,< 10
34%,3%,75%,93%,25 nM,121 nM,,CN1CCC(c2ccc3c(c2)N(S(=O)(=O)c2ccccc2)CC3)CC1,< 10
13%,2%,20%,74%,175 nM,,,O=S(=O)(c1ccccc1)N1CCc2cc(C3CCNCC3)ccc21,
40%,4%,55%,92%,21 nM,212 nM,,CCCN1CCC(c2cccc3c2CN(S(=O)(=O)c2ccccc2)C3)CC1,
38%,-5%,56%,45%,1030 nM,383 nM,,CCCN1CCC(c2cccc3c2CCN3S(=O)(=O)c2ccccc2)CC1,
22%,11%,48%,-9%,,1670 nM,,O=S(=O)(c1ccccc1)N1CCc2cc(C3CCN(C4CCC4)CC3)ccc21,
16%,27%,48%,26%,,712 nM,,CCCN1CCC(c2ccc3c(c2)CN(S(=O)(=O)c2ccccc2)C3)CC1,
